# Legend:
# [1] = Metabolic stability in Sprague-Dawley rat assessed as hepatic extraction ratio; format: ADME, tissue-based; conditions: liver
# [2] = Metabolic stability in Sprague-Dawley rat liver microsomes assessed as half life; format: ADME, Microsome
# [3] = Metabolic stability in Sprague-Dawley rat bile assessed as drug remaining; format: ADME
# [4] = tested on: Canis familiaris; test: Unbound volume of distribution in Beagle dog at 0.5 mg/kg, iv; format: ADME, organism-based, Canis lupus familiaris; parameters: dose 0.5 mg/kg, route intravenous; conditions: in vivo
# [5] = Plasma clearance in Beagle dog at 0.5 mg/kg, iv; format: ADME, organism-based, Canis lupus familiaris; parameters: dose 0.5 mg/kg, route intravenous
# [6] = Metabolic stability in human liver microsomes assessed as half life at 1 uM; format: ADME, Microsome
# [7] = tested on: Liver; test: Unbound intrinsic clearance in Beagle dog liver microsomes at 1 uM; format: ADME, Canis lupus familiaris, Microsome
# [8] = Dissociation constant, pKa of the compound; format: physicochemical
# [9] = Lipophilicity, log D in 0.1M potassium phosphate buffer at pH 7.4; format: physicochemical
# [10] = Oral absorption in Beagle dog at 2 mg/kg, po; format: ADME, organism-based, Canis lupus familiaris; parameters: dose 2 mg/kg, route oral; conditions: in vivo, read-out: Fabs
# [11] = tested on: Canis familiaris; test: Unbound plasma clearance in Beagle dog at 0.5 mg/kg, iv; format: ADME, organism-based, Canis lupus familiaris; parameters: dose 0.5 mg/kg, route intravenous; conditions: in vivo
# [12] = Protein binding in Beagle dog plasma at 1 ug/ml; format: ADME, cell-free, Canis lupus familiaris; conditions: read-out: PPB (converted)
# [13] = Fraction unbound in Beagle dog liver microsomes at 1 uM; format: ADME, Canis lupus familiaris, Microsome
# [14] = Elimination half life in Beagle dog at 0.5 mg/kg, iv; format: ADME, organism-based, Canis lupus familiaris; parameters: dose 0.5 mg/kg, route intravenous; conditions: in vivo
# [15] = Volume of distribution in Beagle dog at 0.5 mg/kg, iv; format: ADME, organism-based, Canis lupus familiaris; parameters: dose 0.5 mg/kg, route intravenous; conditions: in vivo
# [16] = tested on: Liver microsomes; test: Unbound intrinsic clearance in human liver microsomes at 1 uM; format: ADME, Microsome
# [17] = Fraction unbound in human liver microsomes at 1 uM; format: ADME, Microsome
# [18] = Oral bioavailability in Beagle dog at 2 mg/kg; format: ADME, organism-based, Canis lupus familiaris; conditions: in vivo
# [19] = Metabolic stability in Beagle dog liver microsomes assessed as half life at 1 uM; format: ADME, Canis lupus familiaris, Microsome
# [20] = Protein binding in Sprague-Dawley rat plasma at 1 ug/ml; format: ADME, cell-free; conditions: read-out: PPB (converted)
# [21] = Drug uptake in Sprague-Dawley rat hepatocytes; format: ADME, cell-based, Hepatocyte
# [22] = Plasma clearance in Sprague-Dawley rat at 3 mg/kg, iv; format: ADME, organism-based; parameters: dose 3 mg/kg, route intravenous
# [23] = Volume of distribution in Sprague-Dawley rat at 3 mg/kg, iv; format: ADME, organism-based; parameters: dose 3 mg/kg, route intravenous; conditions: in vivo
# [24] = tested on: Hepatocyte; test: Drug uptake in Sprague-Dawley rat hepatocytes assessed per 10^6 cells; format: ADME, cell-based
# [25] = species on record: Homo sapiens; test: Protein binding in human plasma at 1 ug/ml; conditions: read-out: PPB (converted)
# [26] = tested on: Rattus norvegicus; test: Unbound plasma clearance in Sprague-Dawley rat at 3 mg/kg, iv; format: ADME, organism-based; parameters: dose 3 mg/kg, route intravenous; conditions: in vivo
# [27] = Elimination half life in Sprague-Dawley rat at 3 mg/kg, iv; format: ADME, organism-based; parameters: dose 3 mg/kg, route intravenous; conditions: in vivo
# [28] = tested on: Rattus norvegicus; test: Unbound volume of distribution in Sprague-Dawley rat at 3 mg/kg, iv; format: ADME, organism-based; parameters: dose 3 mg/kg, route intravenous; conditions: in vivo
# [29] = Oral absorption in Beagle dog at 0.5 mg/kg, po; format: ADME, organism-based, Canis lupus familiaris; parameters: dose 0.5 mg/kg, route oral; conditions: in vivo, read-out: Fabs
# [30] = Oral bioavailability in Beagle dog at 0.5 mg/kg; format: ADME, organism-based, Canis lupus familiaris; conditions: in vivo
# [31] = Tmax in human at 0.86 mg/kg, po; format: ADME, organism-based; parameters: dose 0.86 mg/kg, route oral; conditions: in vivo
# [32] = tested on: Rattus norvegicus; test: Unbound plasma clearance in Sprague-Dawley rat at 0.5 mg/kg, iv; format: ADME, organism-based; parameters: dose 0.5 mg/kg, route intravenous; conditions: in vivo
# [33] = Elimination half life in Sprague-Dawley rat at 4 mg/kg, po; format: ADME, organism-based; parameters: dose 4 mg/kg, route oral; conditions: in vivo
# [34] = Plasma clearance in Sprague-Dawley rat at 0.5 mg/kg, iv; format: ADME, organism-based; parameters: dose 0.5 mg/kg, route intravenous
# [35] = Elimination half life in human at 0.86 mg/kg, po; format: ADME, organism-based; parameters: dose 0.86 mg/kg, route oral; conditions: in vivo
# [36] = tested on: Rattus norvegicus; test: Unbound volume of distribution in Sprague-Dawley rat at 0.5 mg/kg, iv; format: ADME, organism-based; parameters: dose 0.5 mg/kg, route intravenous; conditions: in vivo
# [37] = Cmax in Sprague-Dawley rat at 4 mg/kg, po; format: ADME, organism-based; parameters: dose 4 mg/kg, route oral; conditions: in vivo
# [38] = Volume of distribution in Sprague-Dawley rat at 0.5 mg/kg, iv; format: ADME, organism-based; parameters: dose 0.5 mg/kg, route intravenous; conditions: in vivo
# [39] = Elimination half life in Sprague-Dawley rat at 0.5 mg/kg, iv; format: ADME, organism-based; parameters: dose 0.5 mg/kg, route intravenous; conditions: in vivo
# [40] = Tmax in Sprague-Dawley rat at 4 mg/kg, po; format: ADME, organism-based; parameters: dose 4 mg/kg, route oral; conditions: in vivo
# [41] = Oral absorption in Beagle dog at 4 mg/kg, po; format: ADME, organism-based, Canis lupus familiaris; parameters: dose 4 mg/kg, route oral; conditions: in vivo, read-out: Fabs
# [42] = Cmax in human at 0.86 mg/kg, po; format: ADME, organism-based; parameters: dose 0.86 mg/kg, route oral; conditions: in vivo
# [43] = Oral bioavailability in Beagle dog at 4 mg/kg; format: ADME, organism-based, Canis lupus familiaris; conditions: in vivo
# [44] = Oral bioavailability in Sprague-Dawley rat at 4 mg/kg; format: ADME, organism-based; conditions: in vivo
SMILES,hepatic extraction ratio [1],half-life [2],Stability [3],Vd [4],clearance [5],half-life at 1 µM [6],CL [7],pKa [8],logD [9],CL [11],fraction unbound at 1 ug/ml [12],fraction unbound at 1 µM [13],half-life [14],Vd [15],CL [16],fraction unbound at 1 µM [17],half-life at 1 µM [19],fraction unbound at 1 ug/ml [20],fraction unbound at 1 ug/ml [25],Fa [29],further results
COc1cc2nc(N3CCCN(C(=O)N4CC(O)C(O)C4)CC3)nc(N3CC4C(CC(=O)OC(C)(C)C)C4C3)c2cc1OC (stereo not drawn),0.75,> 120 min,90%,,,,,,,,,,,,,,,,,,
COc1cc2nc(N3CCCN(C(=O)N4CCOCC4)CC3)nc(N)c2cc1-c1ccccn1,,,,20 L/kg,23 mL/min/kg,5 min,162 mL/min/kg,6.6,2.1,200 mL/min/kg,0.22,0.791,138 min,4.3 L/kg,96 mL/min/kg,0.637,14 min,,,,Fa [10]: 65%; bioavailability [18]: 35%
COc1cc2c(cc1OC)CN(c1nc(N3CCCN(C(=O)N4CC(O)C(O)C4)CC3)nc3cc(OC)c(OC)cc13)CC2 (stereo not drawn),0.7,> 120 min,90%,100 L/kg,47 mL/min/kg,,,6.2,4,470 mL/min/kg,0.1,,144 min,10 L/kg,,,,0.05,0.03,,Km [21]: 6.5 µM; clearance [22]: 135 mL/min/kg; Vd [23]: 9.3 L/kg; Vmax [24]: 481 pmol/min; CL [26]: 2700 mL/min/kg; half-life [27]: 84 min; Vd [28]: 186 L/kg
COc1cc2nc(N3CCc4ncccc4C3)nc(N)c2c(-c2ncccn2)c1OC,,,,11 L/kg,40 mL/min/kg,31 min,50 mL/min/kg,6.5,2.1,450 mL/min/kg,0.45,1,90 min,5.1 L/kg,12 mL/min/kg,0.823,36 min,,,100%,bioavailability [30]: 28%
COc1cc2nc(N3CCCN(C(=O)N4CCOCC4)CC3)cc(N)c2c(-c2ncco2)c1OC,,,,4.5 L/kg,5.9 mL/min/kg,19 min,,7.5,1.1,,0.22,0.962,114 min,1 L/kg,,0.745,80 min,,,86%,bioavailability [30]: 76%
COc1cc2nc(N3CCCN(C(=O)N4CCOCC4)CC3)cc(N)c2c(-c2ccc(F)cc2)c1OC,,,,96 L/kg,15 mL/min/kg,6 min,100 mL/min/kg,8.5,1.8,536 mL/min/kg,0.04,0.602,378 min,4.8 L/kg,154 mL/min/kg,0.331,30 min,0.08,0.06,,Tmax [31]: 42 min; CL [32]: 61250 mL/min/kg; half-life [33]: 168 min; clearance [34]: 91 mL/min/kg; half-life [35]: 720 min; Vd [36]: 70 L/kg; Cmax [37]: 14 ng/mL; Vd [38]: 5.6 L/kg; half-life [39]: 60 min; Tmax [40]: 4 h; Fa [41]: 100%; Cmax [42]: 63 ng/mL; bioavailability [43]: 71%; bioavailability [44]: 11%
